Reference: patent publication US20220241409A1, “WATER SOLUBLE ADJUVANT AND COMPOSITION CONTAINING SAME” (Sumitomo Dainippon Pharma Co., Ltd., priority 2019, published 2022)

Tests used:
[1] = tested on: HLA-A*24:02 transgenic mouse; assay: In vivo adjuvant activity, CTL induction with vaccine f, IFNγ ELISPOT (Test 19); conditions: 0.4 nmol per body added to vaccine f versus no compound; twice
Method: The in vivo adjuvant activity of the compound of Example 2 was evaluated in the following procedure. To a vaccine prepared by mixing Peptide SEQ ID No. 5 prepared in Reference example 19 with a preliminarily-emulsified composition (hereinafter, referred to as “vaccine f”) was added the compound prepared in Example 2 to prepare a vaccine. The vaccine was administered to a HLA-A*24:02 transgenic mouse, and the adjuvant activity of the vaccine was evaluated by the method of testing antigen-specific CTL induction. The CYTWNQMNL (SEQ ID No. 2) in Peptide SEQ ID No. 5 corresponds to an antigen peptide derived from an HLA-A*24:02-restricted WT1 protein.
The character for inducing CTLs specific to the antigen peptide (SEQ ID No. 2) by vaccine f was evaluated by measuring whether IFNγ can be produced upon stimulation of splenocytes from the mouse with the peptide. In addition, the character for exerting in vivo adjuvant activity by the compound in Example 2 was evaluated by comparing the number of CTLs induced by vaccine f and the number of CTLs induced by the vaccine prepared by adding the compound prepared in Example 2 to vaccine f, and checking presence or absence of the increase on the number.
Specifically, Peptide of SEQ ID No. 5 was dissolved in DMSO, and then diluted with water for injection to concentrations of 3 mg/mL. […]

Antigen-Specific CTL = assay: Action of anti-PD-1 antibody in immune response of antigen-specific CTL for peptide and tumor cell (Test 13); type: in vivo, mouse; conditions: splenocyte of mice receiving vaccine b with Example 2 (325 ng per body, twice); antibody 37.5 μg/mL; culture with tumor cells and Peptide SEQ ID No. 1 about three days
Method: Vaccine b prepared like Test 8 was injected to a HLA-A*02:01 transgenic mouse intradermally at the tail base area in an amount for administering 300 μg of Compound of formula 4 per body and 225 μg of Peptide SEQ ID No. 3 per body. Or, a vaccine prepared by adding the compound prepared in Example 2 to vaccine b was injected to a HLA-A*02:01 transgenic mouse intradermally at the tail base area in an amount for administering 300 μg of Compound of formula 4 per body, 225 μg of Peptide SEQ ID No. 3 per body, and 325 ng of the compound prepared in Example 2 per body. The administrations were done twice, which had one week interval. One week after the final administration, the mice were sacrificed with CO2 gas, and then spleens removed from the mice. A splenocyte suspension was prepared from the spleens with CTM. And, like Test 11, Peptide SEQ ID No. 1 was pulsed to a part of the splenocyte, and the cell was mixed with LLC-HHD-WT1 tumor cell. To the mixed cells was added an isotype control antibody (Rat IgG2ax, BD Pharmingen) or anti-PD-1 antibody (clone 29F.1A12, Biolegend) at a final concentration of 37.5 μg/mL, and the mixture was cultured at 37° C. under an atmosphere of 5% CO2 for about three days. The concentration of mouse IFN-γ in the culture supernatant was measured with an ELISA kit.

[2] = tested on: HLA-A*02:01/HLA-DRB1*01:01 transgenic mouse; assay: In vivo adjuvant activity, helper T-cell induction with vaccine d, IFNγ ELISPOT (Test 10); conditions: 3.25 ng per body added to vaccine d versus no compound; twice, one week interval
Method: The in vivo adjuvant activity of the compound prepared in Example 3 was evaluated in the following procedure. To a cocktail vaccine comprising Compound SEQ ID No. 1 prepared in Reference example 1 and Peptide SEQ ID No. 4 prepared in Reference example 4 with a preliminarily-emulsified composition (hereinafter, referred to as “vaccine d”) was added the compound prepared in Example 3 to prepare a vaccine. The vaccine was administered to a HLA-A*02:01/HLA-DRB1*01:01 transgenic mouse (C57BL/6CrHLA-A2.1DR1), and the adjuvant activity of the vaccine was evaluated by the method of testing antigen-specific helper T-cell induction. Peptide SEQ ID No. 4 is a helper peptide derived from HLA-DRB1*01:01-restricted WT1 protein.
Specifically, Peptide SEQ ID No. 1 and Peptide SEQ ID No. 4 were dissolved in DMSO, and then diluted with water for injection to concentrations of Peptide SEQ ID No. 1 of 0.9 mg/mL and Peptide SEQ ID No. 4 of 1.8 mg/mL. The diluted peptide solution was mixed and emulsified with an equal volume of a preliminarily-emulsified composition to prepare vaccine d. Vaccine d was injected to mice intradermally at the tail base area in an amount for administering 180 μg of Peptide SEQ ID No. 1 per body and 360 μg of Peptide SEQ ID No. 4 per body. […] Then, after removal of the supernatant from the wells, stained spots on the ELISPOT plate were counted.

SMILES	CTL counts responsive to Peptide of SEQ ID No. 2 [1]	amount of IFN-γ produced from the CTL with anti-PD-1 antibody relative to isotype control antibody (Antigen-Specific CTL) [times]	T-cell counts responsive to Peptide SEQ ID No. 4 (helper T-cell) [2]
CCCCOc1nc(N)c2[nH]c(=O)n(Cc3ccc(CN(C)CCOCCOCCOCCOCCO)nc3)c2n1 [Example 2, 6-amino-2-butoxy-9-{[6-(16-hydroxy-2-methyl-5,8,11,14-tetraoxa-2-azahexadecan-1-yl)pyridin-3-yl]methyl}-7,9-dihydro-8H-purin-8-one-trifluoroacetate]	more	4	–
CCCCOc1nc(N)c2[nH]c(=O)n(Cc3ccc(CN(C)CCOCCOCCOCCOCCO)cc3)c2n1 [Example 3, 6-amino-2-butoxy-9-{[4-(16-hydroxy-2-methyl-5,8,11,14-tetraoxa-2-azahexadecan-1-yl)phenyl]methyl}-7,9-dihydro-8H-purin-8-one]	–	–	more
